Laboratory results from patent US10030027B2, “Soluble guanylate cyclase stimulators” (MERCK SHARP & DOHME CORP., priority 2015, dated 2018).

Columns and labels:
[1] = target: sGC α1/β1 heterodimer (Homo sapiens (Human), UniProt Q02108+Q02153); experiment: Cell-based sGC functional assay (cyclic GMP assay for sGC activator: CASA assay); conditions: CHO-K1/sGC cells; for Emax: CHO-K1, activity expressed as percentage of compound A (standard), read-out: % Activation; for EC50: inflection point, 4P fit, read-out: IP
Method in brief: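 CHO-K1 cells stably expressing human sGC α1/β1 were pre-incubated 30 min at 25° C with or without 1 μM DETA-NO, then exposed to compound for 1 hr at 37° C with 0.5 mM IBMX and 2.5% DMSO final. Intracellular cGMP was measured by HTRF, expressed as % of reference sGC-HDA maximum; inflection point and maximum fold induction came from 4-parameter fits.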

[2] = target: human recombinant sGC enzyme (Homo sapiens (Human), UniProt Q02108+Q02153); experiment: Size Exclusion Chromatography (SEC) competition binding assay using [3H] Ex-77B as the radioligand; conditions: [3H] Ex-77B radioligand, 24 hours at 37° C.
Method in brief: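 Recombinant human sGC binding measured by competition against tritiated Ex-77B radioligand, with non-specific binding defined by 1 μM unlabeled Ex-77B.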

[3] = system: hypoxia-induced pulmonary hypertension rat; experiment: Acute efficacy in hypoxia-induced pulmonary hypertension in rat following intratracheal administration; format: in vivo
Excerpt: Acute Efficacy in Hypoxia-Induced Pulmonary Hypertension in Rat Following Intratracheal Administration Charles River Sprague-Dawley (CD) male rats weighing approximately 350 g were implanted with HD-S21 dual pressure telemetry transmitters (Data Sciences International (DSI)) into the pulmonary artery and femoral artery. This transmitter enables simultaneous measurement of both pulmonary and systemic hemodynamic parameters in the same animal. After a 7-10 day post-operative recovery period, animals were subjected to a normobaric hypoxic (10% oxygen) environment using a Higher Peak Mountain Air Generator (MAG-10) connected to a modified rodent cage via a fitted inlet port. Oxygen (at 10%), temperature, humidity, and CO2 were controlled within normal range and animals were maintained on a 12 hour light-dark cycle with ad libitum access to food and water. After two weeks exposure to 10% O2 hypoxic environment, systolic pulmonary arterial pressure readings increased from 25 mmHg to greater than 50 mmHg. Using a 48 hour baseline average, animals with readings between 50-110 mmHg (standard deviation of less than 10 mmHg) and minimal changes in systolic systemic blood pressure were enrolled for study. Animals were utilized for up to 2 studies per week for 4 weeks with a minimum of 2 days washout between doses of test agent. Compound or vehicle was administered intra-tracheally under light isoflurane anesthesia (5% in oxygen; flow rate 2.0 L/min for 3 minutes). Once anesthetized, rats were placed on an angled intubation stand in supine position and the trachea visualized using a small laryngoscope. Animals then received either 0.5 mL/kg of vehicle or 0.5 mL/kg vehicle containing compound intra-tracheally delivered via microsprayer by use of a Penn-Century Microsprayer® needle 3″ (Model IA-1B-GP) attached to a 1 mL high pressure syringe (Penn Century-Model B-SYR-PL1000) (Penn-Century, Philadelphia, Pa.). The Microsprayer® tip was inserted into the trachea up to the point at which the bend in the needle is close to the tip of the snout, which positions the tip of the Microsprayer® in front of the carina (bifurcation of trachea at the bronchi). After dose delivery the animal is placed on its back in the home cage for recovery. Hemodynamic measurements were continuously recorded and readings consolidated to hourly moving averages. Each animal received a vehicle on Day 1 followed by vehicle or test agent on Day 2. Change from vehicle baseline was calculated by subtracting the hourly Day 1 vehicle response from the hourly Day 2 response and treatment group data was expressed as mean±SEM. Decreases of systolic blood pressure (SBP) and systolic pulmonary arterial pressure (PAP) were measured at a particular IT dose (mpk milligrams per kilogram) for the following Example compounds.

[4] = system: Spontaneously hypertensive rats (SHR); experiment: Acute efficacy in spontaneously hypertensive rats (SHR); format: in vivo, rat
Excerpt: Acute Efficacy in Spontaneously Hypertensive Rats (SHR)
Spontaneously hypertensive rats (SHR, male, Charles River) were implanted with DSI TA11PA-C40 telemetry device (Data Sciences, Inc., St. Paul, Minn.) under isoflurane or ketamine/metomidine anesthesia. The telemetry unit catheter was inserted into the descending aorta via the femoral artery and the telemetry device was implanted subcutaneously in the left flank area. Animals were allowed to recover from surgery for 14 days before the start of any studies. Blood pressure, heart rate, and activity signals from conscious, freely moving rats were recorded continuously for 30 seconds every 10 minutes. On the day prior to administration of compound, a single oral dose of vehicle (10% transcutol/20% Cremophor/70% water) was administered to all animals to establish baseline control data. The blood pressure lowering efficacy of compound (PO) or vehicle was evaluated following a single oral gavage. Data were collected as hourly averages, and changes in blood pressure were calculated by subtracting control baseline data on an hourly basis. Animals were maintained on normal diet with a 12 hour light-dark cycle.
Maximum peak decreases of systolic blood pressure (SBP) in SHR at a particular P.O. dose (mpk milligrams per kilogram) for the following Example compounds are provided.

Compound | Emax [1] [%] | EC50 [1] [nM] | Ki [2] [nM] | Category: decrease in SBP (at minimum decrease in PAP of ≥15 mmHg) ([3]; Dose IT 0.03 mpk) | Category: decrease in SBP (at minimum decrease in PAP of ≥15 mmHg) ([3]; Dose IT 0.01 mpk) | Category: maximum peak decrease of systolic blood pressure (SBP) in SHR ([4]; Dose P.O. 3 mpk) | Category: maximum peak decrease of systolic blood pressure (SBP) in SHR ([4]; Dose P.O. 1 mpk) | Category: decrease in SBP (at minimum decrease in PAP of ≥15 mmHg) ([3]; Dose IT 0.1 mpk)
CC1(c2nc(CCC(F)(F)C(=O)O)co2)C(=O)Nc2nc(-c3nn(Cc4ccccc4F)c4cc(Cl)ccc34)nc(N)c21 (stereo not shown) [Example 127A, 4-(2-{4-amino-2-[6-chloro-1-(2-fluorobenzyl)-1H-indazol-3-yl]-5-methyl-6-oxo-6,7-dihydro-5H-pyrrolo[2,3-d]pyrimidin-5-yl}-1,3-oxazol-4-yl)-2,2-difluorobutanoic acid] | 117 | 52 | 0.057 | A (decrease in SBP 0-5 mmHg) |  |  |  | 
C[C@@]1(c2ccc(CCC(=O)O)cc2)C(=O)Nc2nc(-c3nn(Cc4ccccc4F)c4cc(Cl)ccc34)nc(N)c21 [Example 47B, (S)-3-(4-{4-amino-2-[6-chloro-1-(2-fluorobenzyl)-1H-indazol-3-yl]-5-methyl-6-oxo-6,7-dihydro-5H-pyrrolo[2,3-d]pyrimidin-5-yl}phenyl)propanoic acid] | 88 | 218 | 0.114 | A (decrease in SBP 0-5 mmHg) |  |  |  | 
CC(C)(Cc1coc(C2(C)C(=O)Nc3nc(-c4nn(Cc5ccccc5F)c5cc(F)ccc45)nc(N)c32)n1)C(=O)O (stereo not shown) [Example 63A, 3-(2-{4-amino-2-[6-fluoro-1-(2-fluorobenzyl)-1H-indazol-3-yl]-5-methyl-6-oxo-6,7-dihydro-5H-pyrrolo[2,3-d]pyrimidin-5-yl}oxazol-4-yl)-2,2-dimethylpropanoic acid] | 72 | 104 |  |  | A (decrease in SBP 0-5 mmHg) |  |  | 
CC(C)(Cc1csc([C@]2(C)C(=O)Nc3nc(-c4nn(Cc5ncccc5F)c5cc(Cl)ccc45)nc(N)c32)n1)C(=O)O [Example 185A, (S)-3-{2-[4-amino-2-{6-chloro-1-[(3-fluoropyridin-2-yl)methyl]-1H-indazol-3-yl}-5-methyl-6-oxo-6,7-dihydro-5H-pyrrolo[2,3-d]pyrimidin-5-yl]-1,3-thiazol-4-yl}-2,2-dimethyl-propanoic acid] | 110 | 426 | 0.165 |  | A (decrease in SBP 0-5 mmHg) |  |  | 
CC1(c2nc(CC(=O)O)co2)C(=O)Nc2nc(-c3nn(Cc4ccccc4F)c4cc(Cl)ccc34)nc(N)c21 (stereo not shown) [Example 51B, 2-(2-{4-amino-2-(6-chloro-1-(2-fluorobenzyl)-1H-indazol-3-yl)-5-methyl-6-oxo-6,7-dihydro-5H-pyrrolo[2,3-d]pyrimidin-5-yl}oxazol-4-yl)acetic acid] | 116 | 485 |  |  | A (decrease in SBP 0-5 mmHg) |  |  | 
Cc1cc(C2(C)C(=O)Nc3nc(-c4nn(CCC(F)(F)C(F)(F)F)c5cc(Cl)ccc45)nc(N)c32)ccc1CCC(=O)O (stereo not shown) [Example 121B, 3-(4-{4-Amino-2-[6-chloro-1-(3,3,4,4,4-pentafluorobutyl)-1H-indazol-3-yl]-5-methyl-6-oxo-6,7-dihydro-5H-pyrrolo[2,3-d]pyrimidin-5-yl}-2-methylphenyl)propanoic acid] | 118 | 238 | 0.234 |  |  | A (decrease in SBP in SHRs 5-25 mmHg) |  | 
C[C@@]1(c2nc(CCC(=O)O)cs2)C(=O)Nc2nc(-c3nn(CCC(F)(F)C(F)(F)F)c4ncccc34)nc(N)c21 (single isomer, unassigned) [Example 82B] | 107 | 1370 | 0.223 |  |  | A (decrease in SBP in SHRs 5-25 mmHg) |  | 
CC(C)(Cc1csc([C@]2(C)C(=O)Nc3nc(-c4nn(Cc5ccccc5F)c5ncccc45)nc(N)c32)n1)C(=O)O [Example 90B, (S)-3-(2-{4-amino-2-[1-(2-fluorobenzyl)-1H-pyrazolo[3,4-b]pyridin-3-yl]-5-methyl-6-oxo-6,7-dihydro-5H-pyrrolo[2,3-d]pyrimidin-5-yl}-1,3-thiazol-4-yl)-2,2-dimethylpropanoic acid] | 112 | 129 | 0.063 |  |  |  | B (decrease in SBP in SHRs 25-40 mmHg) | 
C[C@@]1(c2nc(C3CC3C(=O)O)cs2)C(=O)Nc2nc(-c3nn(CCC(F)(F)C(F)(F)F)c4ncccc34)nc(N)c21 (stereo partly drawn) [Example 80BA, (5S)-2-(2-{-4-amino-5-methyl-6-oxo-2-[1-(3,3,4,4,4-pentafluorobutyl)-1H-pyrazolo[3,4-b]pyridin-3-yl]-6,7-dihydro-5H-pyrrolo[2,3-d]pyrimidin-5-yl}-1,3-thiazol-4-yl)cyclopropane-carboxylic acid] |  |  |  |  |  |  |  | B (decrease in SBP 5-10 mmHg)

Continued by falling EC50 [1], values first:

Emax [1] [%] | EC50 [1] [nM] | Ki [2] [nM] | Compound | Category: decrease in SBP (at minimum decrease in PAP of ≥15 mmHg) ([3]; Dose IT 0.03 mpk) | Category: decrease in SBP (at minimum decrease in PAP of ≥15 mmHg) ([3]; Dose IT 0.01 mpk) | Category: maximum peak decrease of systolic blood pressure (SBP) in SHR ([4]; Dose P.O. 3 mpk) | Category: maximum peak decrease of systolic blood pressure (SBP) in SHR ([4]; Dose P.O. 1 mpk) | Category: decrease in SBP (at minimum decrease in PAP of ≥15 mmHg) ([3]; Dose IT 0.1 mpk)
103 | 839 | 0.292 | CC1(c2ccc(CCC(=O)O)cn2)C(=O)Nc2nc(-c3nn(CCC(F)(F)C(F)(F)F)c4cc(Cl)ccc34)nc(N)c21 (stereo not shown) [Example 119B, 3-(6-{4-Amino-2-[6-chloro-1-(3,3,4,4,4-pentafluorobutyl)-1H-indazol-3-yl]-5-methyl-6-oxo-6,7-dihydro-5H-pyrrolo[2,3-d]pyrimidin-5-yl}pyridin-3-yl)propanoic acid] | A (decrease in SBP 0-5 mmHg) |  |  |  | 
99 | 537 | 0.304 | CC(C)(Cc1cccc(C2(C)C(=O)Nc3nc(-c4nn(CCC(F)(F)C(F)(F)F)c5ncccc45)nc(N)c32)c1)C(=O)O (stereo not shown) [Example 11B, 3-(3-{4-Amino-5-methyl-6-oxo-2-[1-(3,3,4,4,4-pentafluorobutyl)-1H-pyrazolo[3,4-b]pyridin-3-yl]-6,7-dihydro-5H-pyrrolo[2,3-d]pyrimidin-5-yl}phenyl)-2,2-dimethylpropanoic acid] | B (decrease in SBP 5-10 mmHg) |  |  |  | 
110 | 504 |  | C[C@@]1(c2nc(CC3(C(=O)O)CC3)cs2)C(=O)Nc2nc(-c3nn(CCC(F)(F)C(F)(F)F)c4ncccc34)nc(N)c21 [Example 81B, (S)-1-[(2-{4-amino-5-methyl-6-oxo-2-[1-(3,3,4,4,4-pentafluorobutyl)-1H-pyrazolo[3,4-b]pyridin-3-yl]-6,7-dihydro-5H-pyrrolo[2,3-d]pyrimidin-5-yl}-1,3-thiazol-4-yl)methyl]cyclopropane carboxylic acid] | B (decrease in SBP 5-10 mmHg) |  |  |  | 
113 | 82 | 0.087 | CC(C)(CCc1coc(C2(C)C(=O)Nc3nc(-c4nn(Cc5ccccc5F)c5ccccc45)nc(N)c32)n1)C(=O)O (stereo not shown) [Example 220B, 4-(2-{4-amino-2-[1-(2-fluorobenzyl)-1H-indazol-3-yl]-5-methyl-6-oxo-6,7-dihydro-5H-pyrrolo[2,3-d]pyrimidin-5-yl}-1,3-oxazol-4-yl)-2,2-dimethyl-butanoic acid] |  | B (decrease in SBP 5-10 mmHg) |  |  | 
